The record followed here is patent publication US20110190503A1, “Thiazolopyridin-2-yloxy-phenyl and thiazolopyrazin-2-yloxy-phenyl amines as modulators of leukotriene A4 hydrolase” (Janssen Pharmaceutical NV, priority 2008, published 2011).

In this assay the target is T1, recombinant human LTA4 hydrolase (rhLTA4H) (Homo sapiens, UniProt P09960).
T1 construct: made in house; host or cells: Spodoptera frugiperda (Sf-9) cells, recombinant baculovirus (pFastBac1)
T1 sequence (P09960 1-611): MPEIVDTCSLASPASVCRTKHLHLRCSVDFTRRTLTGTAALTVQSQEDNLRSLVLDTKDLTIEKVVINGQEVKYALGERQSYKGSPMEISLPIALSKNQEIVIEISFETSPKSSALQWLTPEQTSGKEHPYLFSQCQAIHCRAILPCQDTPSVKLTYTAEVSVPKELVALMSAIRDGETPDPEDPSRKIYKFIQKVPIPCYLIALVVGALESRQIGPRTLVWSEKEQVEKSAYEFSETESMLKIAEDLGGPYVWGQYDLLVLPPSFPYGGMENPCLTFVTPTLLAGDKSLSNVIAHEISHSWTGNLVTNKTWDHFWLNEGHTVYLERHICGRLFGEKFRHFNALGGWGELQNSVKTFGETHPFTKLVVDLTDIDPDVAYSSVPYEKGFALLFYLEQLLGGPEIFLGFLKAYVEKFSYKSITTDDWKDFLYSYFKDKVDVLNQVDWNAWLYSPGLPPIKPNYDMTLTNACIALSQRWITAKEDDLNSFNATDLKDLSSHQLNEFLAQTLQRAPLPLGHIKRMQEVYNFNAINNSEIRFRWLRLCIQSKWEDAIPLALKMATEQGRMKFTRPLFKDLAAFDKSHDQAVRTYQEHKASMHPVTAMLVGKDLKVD
The assay is described as follows: Recombinant human LTA4 hydrolase assay for LTA4 hydrolase inhibitor activity. The conditions noted are these: rhLTA4H, LTA4 substrate, LTB4 by immunoassay; single determination or average; read-out: IC50. The format is biochemical. As for the experimental part: Assay 1: Recombinant Human LTA4 Hydrolase Assay for LTA4 Hydrolase Inhibitor Activity
Compounds of the present invention were tested for LTA4 hydrolase inhibitor activity against recombinant human LTA4 hydrolase (rhLTA4H). Vectors were prepared and used to express rhLTA4H essentially as follows: LTA4 hydrolase encoding DNA was amplified by polymerase chain reaction (PCR) using a human placental cDNA library as a template. […] The amplified 1.9 kb DNA fragment encoding LTA4 hydrolase was isolated and cloned into the pFastBac1 vector (Invitrogen). Recombinant baculovirus was generated as described by the manufacturer, and used to infect Spodoptera frugiperda (Sf-9) cells. […] The purified enzyme solution was adjusted to contain 0.29 mg/mL LTA4 hydrolase, 50 mM Tris (pH 8.0), 150 mM NaCl, 5 mM dithiothreitol, 50% glycerol, and EDTA-free Complete protease inhibitor cocktail (Roche).
LTA4 substrate was prepared from the methyl ester of LTA4 (Cayman Chemical) by treatment with 67 equiv of NaOH under nitrogen at rt for 40 min. The LTA4 substrate in its free acid form was kept frozen at −80° C. until needed. Each compound was diluted to different concentrations in assay buffer (from Assay Designs) containing 10% DMSO. A 25-μL aliquot of each compound dilution was incubated for 10 min at rt with an equal volume of assay buffer containing 10 ng of recombinant human LTA4H. The solution was then adjusted to 200 μL with assay buffer. […] Each reaction was carried out at rt for 30 min. The reaction was stopped by diluting 10 μL of the reaction mixture with 200 μL of assay buffer. LTB4 was quantified in the diluted sample by a commercially available enzyme-linked immunoassay (Cayman Chemical Co.), as recommended by the manufacturer. Positive controls, under essentially identical conditions but without addition of an inhibitor compound, and negative controls, containing all assay components except enzyme, were routinely run in each experiment. IC50 values were determined by nonlinear regression of the activity data at different compound concentrations using Graphpad Prism 4.0, one site binding competition.
The values presented here are the result of a single determination or an average of two or more determinations, as indicated in parentheses following each value. For compounds tested three or more times, the average value is followed by the standard deviation
Regarding `CCN(CCc1ccc(Oc2nc3cccnc3s2)cc1)C1CC1` [Example 174, N-Ethyl-N-{2-[4-([1,3]thiazolo[5,4-b]pyridin-2-yloxy)phenyl]ethyl}cyclopropanamine], the IC50 (as a rule, the point on the concentration scale where inhibition reaches its midpoint) stood at 0.094 µM.

Consider `c1cc(C2CCN(Cc3ccc(Oc4nc5cnccc5s4)cc3)CC2)ccn1` [Example 190, 2-({4-[(4-Pyridin-4-ylpiperidin-1-yl)methyl]phenyl}oxy)[1,3]thiazolo[4,5-c]pyridine], for which the IC50 is 0.455 µM.

Consider `NC(=O)N1[C@@H]2CC[C@H]1CN(Cc1ccc(Oc3nc4cnccc4s3)cc1)C2` [Example 202, meso-3-[4-([1,3]Thiazolo[4,5-c]pyridin-2-yloxy)benzyl]-3,8-diazabicyclo[3.2.1]octane-8-carboxamide], for which the IC50 was approximately 9 µM.

Consider `c1ccc(CC2CCN(CCOc3ccc(Oc4nc5nccnc5s4)cc3)CC2)cc1` [Example 23, 2-{4-[2-(4-Benzylpiperidin-1-yl)ethoxy]phenoxy}[1,3]thiazolo[4,5-b]pyrazine], for which the IC50 was found to be 0.16 µM.

Regarding `CN(Cc1ccc(Oc2nc3ccncc3s2)cc1)C1CCCCC1` [Example 175, N-Methyl-N-[4-([1,3]thiazolo[5,4-c]pyridin-2-yloxy)benzyl]cyclohexanamine], the IC50 came out at 0.791 µM.

For the molecule `Cc1ccnc2nc(Oc3ccc(CN4CCN(c5ccncc5)CC4)cc3)sc12` [Example 168, 7-Methyl-2-({4-[(4-pyridin-4-ylpiperazin-1-yl)methyl]phenyl}oxy)[1,3]thiazolo[4,5-b]pyridine], the IC50 amounted to 0.647 µM.

As for `CN1CCCN(CCOc2ccc(Oc3nc4cccnc4s3)cc2)CC1` [Example 152, 2-{4-[2-(4-Methyl-1,4-diazepan-1-yl)ethoxy]phenoxy}[1,3]thiazolo[5,4-b]pyridine], the IC50 turned out to be 0.498 µM.

For `c1cc2sc(Oc3ccc(CN4CCCCC4)cc3)nc2cn1` [Example 133, 2-[4-(Piperidin-1-ylmethyl)phenoxy][1,3]thiazolo[4,5-c]pyridine], the IC50 stood at 1.87 µM.

`c1ccc(CC2CCN(CCc3ccc(Oc4nc5ncccc5s4)cc3)CC2)cc1` [Example 63, 2-{4-[2-(4-Benzylpiperidin-1-yl)ethyl]phenoxy}[1,3]thiazolo[4,5-b]pyridine]: the IC50 was 0.016 µM.

Regarding `NC(=O)N1C[C@H]2CC[C@@H](C1)N2CCOc1ccc(Oc2nc3ncccc3s2)cc1` [Example 211, meso-8-{2-[4-([1,3]Thiazolo[4,5-b]pyridin-2-yloxy)phenoxy]ethyl}-3,8-diazabicyclo[3.2.1]octane-3-carboxamide], the IC50 amounted to 0.024 µM.

`c1cnc2nc(Oc3ccc(OCCNC4CC4)cc3)sc2c1` [Example 139, N-{2-[4-([1,3]Thiazolo[4,5-b]pyridin-2-yloxy)phenoxy]ethyl}cyclopropanamine]: the IC50 was determined as 0.041 µM.

As to `CN(CCN1CCCCC1)Cc1ccc(Oc2nc3ncccc3s2)cc1` [Example 271, N-Methyl-2-piperidin-1-yl-N-[4-([1,3]thiazolo[4,5-b]pyridin-2-yloxy)benzyl]ethanamine], the IC50 was 0.293 µM.

On to `O=C1CCCN1C1CCN(Cc2ccc(Oc3nc4cccnc4s3)cc2)CC1` [Example 112, 1-{1-[4-([1,3]Thiazolo[5,4-b]pyridin-2-yloxy)benzyl]piperidin-4-yl}pyrrolidin-2-one], for which the IC50 was determined as 0.37 µM.

In the case of `c1cnc2sc(Oc3ccc(CCN4CCCCCC4)cc3)nc2n1` [Example 179, 2-{[4-(2-Azepan-1-ylethyl)phenyl]oxy}[1,3]thiazolo[4,5-b]pyrazine], the IC50 was found to be 0.038 µM.

Take `c1ccc2c(c1)CCCN2CCOc1ccc(Oc2nc3ncccc3s2)cc1` [Example 7, 1-{2-[4-([1,3]Thiazolo[4,5-b]pyridin-2-yloxy)phenoxy]ethyl}-1,2,3,4-tetrahydroquinoline]: the IC50 came to 0.31 µM.

Consider `CC(=O)N[C@H]1C[C@H]2CC[C@@H](C1)N2Cc1ccc(Oc2nc3ccncc3s2)cc1` [Example 115, meso-N-{(3-endo)-8-[4-([1,3]Thiazolo[5,4-c]pyridin-2-yloxy)benzyl]-8-azabicyclo[3.2.1]oct-3-yl}acetamide], for which the IC50 is 0.32 µM.
